Assay results published in US9512139B2, “Conformationally constrained, fully synthetic macrocyclic compounds” (POLYPHOR AG, priority 2009, dated 2016).

Molecular target: T1, Prostaglandin F (FP) Receptor (Homo sapiens, UniProt P43088)
T1 construct: host or cells: Ca2+ optimized hematopoietic cell lines (rat)
Assay: Ca2+ assay (FLIPR) for the GPCR prostaglandin F (FP) receptor, agonist and antagonist mode
Type: cell-based
Description: Biological and Pharmacological Methods 1. Ca^2+ Assays for the GPCRs Motilin Receptor, Prostaglandin F (FP) Receptor, 5-hydroxytryptamine 2B (5-HT2B) Receptor, and Purinoreceptor P2Y1
Assays were performed using on a FLIPR^TETRA fluorometric imaging plate reader (Molecular Devices) with ScreenWorks Version 2 (Molecular Devices) as device operating and data analysis software.
Dose dependent agonist and antagonist activities were determined. Percentage activation and percentage inhibition values were determined.
Percentage activation was determined upon initial addition of the sample compounds followed by 10 minutes incubation at 25° C. Following compound incubation, reference agonists were added at EC80 to determine percentage inhibition.
Reference agonists were purchased from reputable commercial vendors and prepared according to each ligand's specifications. All handling of ligands were done to ensure proper control throughout the experiments.
Example compounds were weighed on a Microbalance (Mettler MX5) and dissolved in 100% DMSO to a final concentration of 2.5 mM and subsequently diluted into the assay buffer.
The Assay buffer was a supplemented HBSS (Hank's Balanced Salt Solution). HBSS was supplemented with 20 mM HEPES (4-(2-hydroxyethyl)-piperazin-1-ethansulfonic acid) and 2.5 mM Probenecid (Sigma P8761).
GPCR assays were performed using Ca^2+ optimized hematopoietic cell lines (rat) with cultures never exceeding 90% confluency. Cells were harvested and seeded (from cultures at less than 90% confluency) at 50000 cells/well for a 96-well plate (12500 cells/well for 384). After seeding, the assay plates were incubated for forty-five (45) minutes at room temperature. After room temperature incubation, the assay plates were incubated at 37° C. 5% CO2 for 24 hours prior to assaying.
All GPCR assays were performed using Fluo-8 Ca^2+ dye. Ca^2+ dye was prepared at 1× dye concentration in GPCR assay buffer. After 24 hours of incubation, cells were washed with GPCR assay buffer, and then Ca^2+-dye (100 μL/well) was added.
The plates were incubated for 90 minutes at 30° C. 5% CO2 prior to FLIPR assay.
Compound plates were prepared to add 50 μL/well during the agonist assay mode. During the FLIPR assay, 50 μL/well from the compound plate was diluted 3-fold into the existing 100 μL/well from the dye loading step. Therefore all compounds were prepared as 3× the final concentration desired in the assay.
After completion of the first single addition assay run, assay plate was removed from the FLIPR Tetra and placed at 25° C. for seven (7) minutes before antagonist assay.
Using the EC80 values determined during the agonist assay, all pre-incubated sample compound and reference antagonist (if applicable) wells were stimulated at the EC80 of the reference agonist. As reference ligands for the first three assays their obvious natural ligands motilin, prostaglandin F2α, and serotonin (5-HT, 5-Hydroxytryptamine) were used; and for the P2Y1 assay 2MeSATP (2-methyl-thio-adeno-sine 5′-triphosphate, i.e. (2R,3S,4R)-5-(6-amino-2-methylsulfanyl-purin-9-yl)-3,4-dihydroxy-tetrahydrofuran-2-yl]methyl (hydroxy-phosphonooxy-phosphoryl)hydrogen phosphate) was applied.
After the addition of the reference agonist fluorescence was monitored for 180 sec using FLIPR Tetra.
Data Analysis and Results:
From the FLIPR data, with negative control correction enabled, the maximum statistic for each well was exported and percentage activation relative to Emax control was calculated.

T1 sequence (P43088 whole entry): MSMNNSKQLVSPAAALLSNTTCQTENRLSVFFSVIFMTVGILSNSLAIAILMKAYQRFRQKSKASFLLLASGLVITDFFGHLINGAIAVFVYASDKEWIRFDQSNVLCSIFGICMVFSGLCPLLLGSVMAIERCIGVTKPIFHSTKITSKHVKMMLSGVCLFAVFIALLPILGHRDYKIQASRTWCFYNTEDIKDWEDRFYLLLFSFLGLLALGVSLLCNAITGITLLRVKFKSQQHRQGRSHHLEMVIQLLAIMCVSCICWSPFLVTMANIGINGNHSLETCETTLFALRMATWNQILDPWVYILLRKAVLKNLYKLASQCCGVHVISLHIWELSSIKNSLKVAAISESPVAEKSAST

Structure (SMILES)	IC50 [nM]	inhibition at 10 µM [%]
CCCCCCCCCC(=O)N[C@H]1CCCN(C)C(=O)c2cccc(c2)OC[C@@H]2C[C@H](NC(=O)Cc3cccc4ccccc34)CN2C1=O [Ex. 519, N-[(4S,6S,10S)-14-methyl-6-{[2-(1-naphthyl)acetyl]amino}-9,15-dioxo-2-oxa-8,14-diazatricyclo[14.3.1.0^4,8]icosa-1(20),16,18-trien-10-yl]decanamide]	3000	–
CCCCCCCCCC(=O)N[C@H]1C[C@H]2COc3cccc(c3)C(=O)N(C)CCC[C@H](NC(=O)Cc3ccc4ccccc4c3)C(=O)N2C1 [Ex. 542, N-[(4S,6S,10S)-14-methyl-10-{[2-(2-naphthyl)acetyl]amino}-9,15-dioxo-2-oxa-8,14-diazatricyclo[14.3.1.0^4,8]icosa-1(20),16,18-trien-6-yl]decanamide]	–	74
CCCCCCCCCC(=O)N[C@H]1CCCN(C)C(=O)c2cccc(c2)OC[C@@H]2C[C@H](NC(=O)c3cccc(N4CCOCC4)c3)CN2C1=O [Ex. 510, N-[(4S,6S,10S)-14-methyl-6-[(3-morpholinobenzoyl)amino]-9,15-dioxo-2-oxa-8,14-diazatricyclo[14.3.1.0^4,8]icosa-1(20),16,18-trien-10-yl]decanamide]	1500	42
CCCCCCCCCC(=O)N[C@H]1CCCN(C)C(=O)c2cccc(c2)OC[C@@H]2C[C@H](NC(=O)CCc3ccccc3)CN2C1=O [Ex. 509, N-[(4S,6S,10S)-14-methyl-9,15-dioxo-6-[(3-phenylpropanoyl)amino]-2-oxa-8,14-diazatricyclo[14.3.1.0^4,8]icosa-1(20),16,18-trien-10-yl]decanamide]	2100	54
CCCCCCCCCC(=O)N[C@H]1C[C@H]2COc3cccc(c3)C(=O)N(C)CCC[C@H](NC(=O)Cc3cccc4ccccc34)C(=O)N2C1 [Ex. 543, N-[(4S,6S,10S)-14-methyl-10-{[2-(1-naphthyl)acetyl]amino}-9,15-dioxo-2-oxa-8,14-diazatricyclo[14.3.1.0^4,8]icosa-1(20),16,18-trien-6-yl]decanamide]	–	82
CN1CCC[C@H](NC(=O)Cc2ccc3ccccc3c2)C(=O)N2C[C@@H](NC(=O)Nc3cccc(F)c3)C[C@H]2COc2cccc(c2)C1=O [Ex. 537, N-[(4S,6S,10S)-6-{[(3-fluoroanilino)carbonyl]amino}-14-methyl-9,15-dioxo-2-oxa-8,14-diazatricyclo[14.3.1.0^4,8]icosa-1(20),16,18-trien-10-yl]-2-(2-naphthyl)acetamide]	–	75
CN1CCC[C@H](NC(=O)C(c2ccccc2)c2ccccc2)C(=O)N2C[C@@H](NC(=O)Cc3ccc(-c4ccccc4)cc3)C[C@H]2COc2cccc(c2)C1=O [Ex. 547, N-[(4S,6S,10S)-6-[(2-[1,1′-biphenyl]-4-ylacetyl)amino]-14-methyl-9,15-dioxo-2-oxa-8,14-diazatricyclo[14.3.1.0^4,8]icosa-1(20),16,18-trien-10-yl]-2,2-diphenylacetamide]	–	47
CN1CCC[C@H](NC(=O)Cc2ccc(-c3ccccc3)cc2)C(=O)N2C[C@@H](NC(=O)Nc3cccc(N(C)C)c3)C[C@H]2COc2cccc(c2)C1=O [Ex. 526, 2-[1,1′-biphenyl]-4-yl-N-[(4S,6S,10S)-6-({[3-(dimethylamino)anilino]carbonyl}amino)-14-methyl-9,15-dioxo-2-oxa-8,14-diazatricyclo[14.3.1.0^4,8]icosa-1(20),16,18-trien-10-yl]acetamide]	180	99
COc1cccc(NC(=O)N[C@H]2C[C@H]3COc4cccc(c4)C(=O)N(C)CCC[C@H](NC(=O)Cc4ccc5ccccc5c4)C(=O)N3C2)c1 [Ex. 513, N-[(4S,6S,10S)-6-{[(3-methoxyanilino)carbonyl]amino}-14-methyl-9,15-dioxo-2-oxa-8,14-diazatricyclo[14.3.1.0^4,8]icosa-1(20),16,18-trien-10-yl]-2-(2-naphthyl)acetamide]	650	95
CCCCCCCCCC(=O)N[C@H]1CCCN(C)C(=O)c2cccc(c2)OC[C@@H]2C[C@H](NC(=O)CC(c3ccccc3)c3ccccc3)CN2C1=O [Ex. 550, N-[(4S,6S,10S)-6-[(3,3-diphenylpropanoyl)amino]-14-methyl-9,15-dioxo-2-oxa-8,14-diazatricyclo[14.3.1.0^4,8]icosa-1(20),16,18-trien-10-yl]decanamide]	–	73
O=C(Cc1ccc2ccccc2c1)N[C@H]1C[C@H]2COc3cccc(c3)C(=O)NCCC[C@H](NC(=O)OCc3ccccc3)C(=O)N2C1 [Ex. 388, benzyl N-[(4S,6S,10S)-6-{[2-(2-naphthyl)acetyl]amino}-9,15-dioxo-2-oxa-8,14-diazatricyclo[14.3.1.0^4,8]icosa-1(20),16,18-trien-10-yl]carbamate]	320	99
CN1CCC[C@H](NC(=O)Cc2ccc(-c3ccccc3)cc2)C(=O)N2C[C@@H](NC(=O)C(c3ccccc3)c3ccccc3)C[C@H]2COc2cccc(c2)C1=O [Ex. 546, N-[(4S,6S,10S)-10-[(2-[1,1′-biphenyl]-4-ylacetyl)amino]-14-methyl-9,15-dioxo-2-oxa-8,14-diazatricyclo[14.3.1.0^4,8]icosa-1(20),16,18-trien-6-yl]-2,2-diphenylacetamide]	–	37
CN1CCC[C@H](NC(=O)Cc2ccc3ccccc3c2)C(=O)N2C[C@@H](NC(=O)Oc3ccccc3)C[C@H]2COc2cccc(c2)C1=O [Ex. 539, phenyl N-[(4S,6S,10S)-14-methyl-10-{[2-(2-naphthyl)acetyl]amino}-9,15-dioxo-2-oxa-8,14-diazatricyclo[14.3.1.0^4,8]icosa-1(20),16,18-trien-6-yl]carbamate]	–	59
CCCCCC/C=C/CC(=O)N[C@H]1CCCN(C)C(=O)c2cccc(c2)OC[C@@H]2C[C@H](NC(=O)Cc3ccc4ccccc4c3)CN2C1=O [Ex. 518, (E)-N-[(4S,6S,10S)-14-methyl-6-{[2-(2-naphthyl)acetyl]amino}-9,15-dioxo-2-oxa-8,14-diazatricyclo[14.3.1.0^4,8]icosa-1(20),16,18-trien-10-yl]-3-decenamide]	490	80
CN1CCC[C@H](NC(=O)CCCCCOCc2ccccc2)C(=O)N2C[C@@H](NC(=O)Cc3ccc4ccccc4c3)C[C@H]2COc2cccc(c2)C1=O [Ex. 521, 6-(benzyloxy)-N-[(4S,6S,10S)-14-methyl-6-{[2-(2-naphthyl)acetyl]amino}-9,15-dioxo-2-oxa-8,14-diazatricyclo[14.3.1.0^4,8]icosa-1(20),16,18-trien-10-yl]hexanamide]	1000	81
CN1CCC[C@H](NC(=O)Cc2ccc(-c3ccccc3)cc2)C(=O)N2C[C@@H](NC(=O)Cc3ccc4ccccc4c3)C[C@H]2COc2cccc(c2)C1=O [Ex. 522, 2-[1,1′-biphenyl]-4-yl-N-[(4S,6S,10S)-14-methyl-6-{[2-(2-naphthyl)acetyl]amino}-9,15-dioxo-2-oxa-8,14-diazatricyclo[14.3.1.0^4,8]icosa-1(20),16,18-trien-10-yl]acetamide]	350	95
CN1CCC[C@H](NC(=O)Nc2cccc(N(C)C)c2)C(=O)N2C[C@@H](NC(=O)Cc3ccc4ccccc4c3)C[C@H]2COc2cccc(c2)C1=O [Ex. 507, N-[(4S,6S,10S)-10-({[3-(dimethylamino)anilino]carbonyl}amino)-14-methyl-9,15-dioxo-2-oxa-8,14-diazatricyclo[14.3.1.0^4,8]icosa-1(20),16,18-trien-6-yl]-2-(2-naphthyl)acetamide]	1100	51
